Experimental data as given in publication PMC9456491, “Targeting the Mitochondrial Protein VDAC1 as a Potential Therapeutic Strategy in ALS” (International Journal of Molecular Sciences, 2022).

What was measured:
[1] = system: SH-SY5Y neuronal cells expressing mutant SOD1^G93A or SOD1^G37R; experiment: Rescue of mutant SOD1-induced cell death in transfected SH-SY5Y cells; format: cell-based; settings: 4.5 × 10^4 cells/well, transfected with SOD1^G93A or SOD1^G37R, peptide 20 µM, 5 h, 24 h post-transfection, triplicates, n = 3, means ± SEM
Procedure: Figure 1 Identification of VDAC1 interacting sites in SOD1. (A) SH-SY5Y cells (4.5 × 10^4 cells/well in 24-well plates) were transfected with an empty plasmid or a plasmid encoding for mutant SOD1^G93A or SOD1^G37R. Then, 24 h post-transfection, the cells were incubated for 5 h with (10-20)N-Ter-Antp peptide (20 µM) and then analyzed for cell death. The results are from triplicates of different biological repeats (n = 3) and are presented as the means ± SEM. * p < 0.05. (B) Schematic presentation of peptide arrays and detection of VDAC1-interacting peptides. (C) Glass-bound peptide array consisting of 768 overlapping peptides derived from 19 VDAC1-interacting proteins were incubated for 4 h with purified VDAC1 (64 nM) and then blotted with anti-VDAC1 antibodies against an internal sequence (1:5000) or with antibodies against the VDAC1-N-terminus, followed by incubation with HRP-conjugated anti-mouse IgG and detection using a chemiluminescence kit. […]
SH-SY5Y and NSC-34 cells were grown at 37 °C and with 5% CO2 in Dulbecco’s modified Eagle medium (DMEM) supplemented with 10% tetracycline-free fetal bovine serum (FBS), L-Glutamine (2 mM), and penicillin (100 U/mL)/streptomycin (0.1 mg/mL). […] According to the manufacturer’s protocol, cell viability was analyzed using the CellTiter 96 AQueous one-solution cell proliferation assay (Promega) and plate reader at 490 nm.

[2] = ref [32]; cited from earlier work
Source text: In order to test whether a VDAC1-derived N-terminal peptide can rescue mutant SOD1 toxicity, we expressed two different SOD1 mutants (SOD1^G93A or SOD1^G37R) in SH-SY5Y neuronal cells. These expressed SOD1 mutant proteins decreased cell survival compared to control cells. […] It is important to note that in this peptide, the last six residues f ...

[3] = system: VDAC1 interaction with SOD1-derived peptides (spots 1C16 and 1C17); experiment: Inhibition of VDAC1 interaction with SOD1-derived peptides on peptide array; format: binding, rat; settings: VDAC1 64 nM pre-incubated 1 h with 160 nM SOD1 protein, then 4 h with array; for inhibition of VDAC1 interaction with 1C17 peptide: spot 1C17; for decrease of VDAC1 interaction with both SOD1-derived peptides 1C16 and 1C17: spots by Image J
Procedure: Figure 2 VDAC1 interaction with SOD1-derived peptides is reduced by WT and mutant SOD1. VDAC1 (64 nM) was pre-incubated for 1 h without (A) or with 160 nM of SOD1^WT (B), SOD1^G93A (C), or SOD1^G85R (D), followed by incubation for 4 h with the peptide array and then blotted with anti-VDAC1 antibodies, as in Figure 1C. SOD1-derived sequences are circled. […] (G) Pull down with anti-SOD1 antibody was performed by incubating recombinant VDAC1 and SOD1 proteins (2 µg each) with increasing concentrations of SOD1-derived peptide (0, 5, 15, and 30 µM). Immunoblotting was used to determine the levels of SOD1^G93A and VDAC1 in the bound and unbound fraction of each immunoprecipitation experiment. […] (H) Quantification of immunoblotting bands with ImageJ software. Quantification analysis of the relative VDAC1 intensity was performed with one-way ANOVA. Bars represent mean ± SEM. TEXT PRINTED IN THE PICTURE: (F) SOD1-derived peptide: Kd= 4 μM
Customized 768-peptide sequences derived from 19 VDAC1-interacting proteins produced by INTAVIS Peptide Services (GmbH & Co. KG, Tübingen, Germany) were arrayed on a glass slide. The interaction of purified VDAC1 with glass-bound peptide arrays (BGUN_SB-002) was assessed by slide washing with TBST buffer (150 mM NaCl, 50 mM Tris/HCl, pH 7.4, and 0.1% Tween-20), followed by overnight incubation with blocking buffer (Tris-buffered saline, pH 7.8, containing 2.5% low-fat milk, w/v) at 4 °C. Next, the peptide array glass slides were incubated with purified VDAC1 (64 nM) in 400 µL of protein-interacting buffer (20 mM HEPES, 100 mM KCl, pH,7.4, PBS) at room temperature for 4 h in a humidified chamber. Then, the peptide array glass slides were washed (three times, 10 min each) with TBST and incubated overnight at 4 °C with anti-VDAC1 antibody against an internal sequence (ab15895) or against the N-terminus (ab154856) (1:5000). The peptide array glass slides were washed with 0.1% Tween-20 in TBS buffer/Tris-buffered saline (150 mM NaCl, 50 mM Tris/HCl, pH 7.4 TBST), followed by incubation for 2 h at RT with HRP-conjugated anti-mouse or anti-rabbit (1:10,000) or anti-goat (1:20,000) IgG as a secondary antibody. Enhanced chemiluminescent substrate (Pierce Chemical, Rockford, IL, USA) was used to detect HRP. The signal was captured in the dark using FUSION-FX (Vilber Lourmat) software.
The VDAC1 protein was purified from rat liver mitochondria, as previously described. Briefly, rat liver mitochondria (5 mg/mL) in 10 mM Tris-HCl, pH 7.2, were incubated with 2% LDAO on ice for 20 min, followed by centrifugation (30 min, 14,000× g), and the obtained supernatant was loaded onto a dry celite:hydroxyapatite (2:1) column. VDAC1 was eluted with a solution containing 2% LDAO, 10 mM Tris-HCl, pH 7.2, 50 mM NaCl, and 22 mM NaH2PO4. The VDAC1-containing fractions were dialyzed against 10 mM Tris-HCl, pH 7.2, and subjected to a second chromatography step on a carboxymethyl-cellulose (CMC) column from which VDAC1 was eluted with a solution containing 10 mM Tris-HCl, pH 7.2, 0.3% LDAO, and 500 mM NaCl. The VDAC1-containing fractions were collected and used for VDAC1 channel conductance and microscale thermophoresis (MST) assays.
Recombinant SOD1^WT, SOD1^G93A, and SOD1^G85R were purified as previously described. Briefly, the proteins were expressed as 6His-tagged (N-term) soluble proteins in BL21 cells, and the expression of the recombinant proteins was induced by addition of 0.5 mM IPTG, following purification using a 5mL HisTrap FF column (GE Healthcare, Chicago, IL, USA). The peak fractions were dialyzed overnight at 4 °C against a storage buffer (50 mM Na^+/phosphate, pH 7.6, 0.1 M NaCl, and 10% glycerol), concentrated by ultrafiltration (10 kDa cutoff, Millipore, USA), centrifuged at 110,000× g at 4 °C for 1 h using ultracentrifuge (Sorvall M120 Discovery, Waltham, MA, USA), and stored at −20 °C until use. […]

Substance	rescue of mutant SOD1-induced toxicity (cell survival) [1]	cell death activity [2]	inhibition of VDAC1 interaction with 1C17 peptide [3]	decrease of VDAC1 interaction with both SOD1-derived peptides 1C16 and 1C17 [3]	inhibition of VDAC1 interaction with 1C16 peptide ([3]; spot 1C16)
1-MAVPPTYADLGKSARDVFTK-20-RQIKIWFQNRRMKWKK [(10–20)-N-Ter-Antp, VDAC1-N-terminus-derived peptide]	rescued mutant SOD1-induced toxicity increasing SH-SY5Y cell survival	lost its cell death activity			
SOD1^G85R: recombinant dismutase inactive SOD1 mutant, 6His-tagged (N-term)			at a similar level	decreased the VDAC1 interaction with both SOD1-derived peptides	
SOD1^G93A: recombinant dismutase active SOD1 mutant, 6His-tagged (N-term)			at a similar level	decreased the VDAC1 interaction with both SOD1-derived peptides	prevented the interaction of VDAC1 with the 1C16 peptide better than SOD1^WT and SOD1^G85R
SOD1^WT: recombinant wild type SOD1, 6His-tagged (N-term)			at a similar level	decreased the VDAC1 interaction with both SOD1-derived peptides	
